Test results from the NIST ThermoML archive (doi:10.1021/acs.jced.9b00396).
± gives the expanded uncertainty stated by the source.

Conditions: Liquid; for speed of sound: Frequency=3 MHz, Single path-length method; for mass density: Vibrating tube method

CC(=O)OCCC(C)C [3-methylbutyl ethanoate]
Conditions | mass density [kg/m3] | speed of sound [m/s]
293.15 K, 100 kPa | 872.9 ± 0.9 | 1213 ± 3
293.15 K, 500 kPa | 874 ± 1 | –
293.15 K, 1000 kPa | 874 ± 1 | –
293.15 K, 2500 kPa | 875 ± 1 | –
293.15 K, 5000 kPa | 877 ± 1 | –
293.15 K, 7500 kPa | 879 ± 1 | –
293.15 K, 10000 kPa | 881 ± 1 | –
293.15 K, 12500 kPa | 883 ± 1 | –
293.15 K, 15000 kPa | 885 ± 1 | –
293.15 K, 17500 kPa | 887 ± 1 | –
293.15 K, 20000 kPa | 889 ± 1 | –
293.15 K, 22500 kPa | 891 ± 1 | –
293.15 K, 25000 kPa | 893 ± 1 | –
293.15 K, 27500 kPa | 895 ± 1 | –
293.15 K, 30000 kPa | 896 ± 1 | –
293.15 K, 32500 kPa | 898 ± 1 | –
293.15 K, 35000 kPa | 899 ± 1 | –
293.15 K, 37500 kPa | 901 ± 1 | –
298.15 K, 100 kPa | 868 ± 0.9 | 1193 ± 3
298.15 K, 500 kPa | 869 ± 1 | –
298.15 K, 1000 kPa | 869 ± 1 | –
298.15 K, 2500 kPa | 870 ± 1 | –
298.15 K, 5000 kPa | 873 ± 1 | –
298.15 K, 7500 kPa | 875 ± 1 | –
298.15 K, 10000 kPa | 877 ± 1 | –
298.15 K, 12500 kPa | 879 ± 1 | –
298.15 K, 15000 kPa | 881 ± 1 | –
298.15 K, 17500 kPa | 883 ± 1 | –
298.15 K, 20000 kPa | 885 ± 1 | –
298.15 K, 22500 kPa | 886 ± 1 | –
298.15 K, 25000 kPa | 888 ± 1 | –
298.15 K, 27500 kPa | 890 ± 1 | –
298.15 K, 30000 kPa | 892 ± 1 | –
298.15 K, 32500 kPa | 894 ± 1 | –
298.15 K, 35000 kPa | 895 ± 1 | –
298.15 K, 37500 kPa | 897 ± 1 | –
313.15 K, 100 kPa | 853.3 ± 0.9 | 1132 ± 3
313.15 K, 500 kPa | 854 ± 1 | –
313.15 K, 1000 kPa | 854 ± 1 | –
313.15 K, 2500 kPa | 856 ± 1 | –
313.15 K, 5000 kPa | 858 ± 1 | –
313.15 K, 7500 kPa | 861 ± 1 | –
313.15 K, 10000 kPa | 863 ± 1 | –
313.15 K, 12500 kPa | 865 ± 1 | –
313.15 K, 15000 kPa | 867 ± 1 | –
313.15 K, 17500 kPa | 869 ± 1 | –
313.15 K, 20000 kPa | 871 ± 1 | –
313.15 K, 22500 kPa | 873 ± 1 | –
313.15 K, 25000 kPa | 875 ± 1 | –
313.15 K, 27500 kPa | 877 ± 1 | –
313.15 K, 30000 kPa | 879 ± 1 | –
313.15 K, 32500 kPa | 881 ± 1 | –
313.15 K, 35000 kPa | 883 ± 1 | –
313.15 K, 37500 kPa | 885 ± 1 | –
333.15 K, 100 kPa | 833.3 ± 0.9 | 1045 ± 3
333.15 K, 500 kPa | 834 ± 1 | –
333.15 K, 1000 kPa | 834 ± 1 | –
333.15 K, 2500 kPa | 836 ± 1 | –
333.15 K, 5000 kPa | 839 ± 1 | –
333.15 K, 7500 kPa | 842 ± 1 | –
333.15 K, 10000 kPa | 844 ± 1 | –
333.15 K, 12500 kPa | 847 ± 1 | –
333.15 K, 15000 kPa | 849 ± 1 | –
333.15 K, 17500 kPa | 851 ± 1 | –
333.15 K, 20000 kPa | 854 ± 1 | –
333.15 K, 22500 kPa | 856 ± 1 | –
333.15 K, 25000 kPa | 858 ± 1 | –
333.15 K, 27500 kPa | 860 ± 1 | –
333.15 K, 30000 kPa | 862 ± 1 | –
333.15 K, 32500 kPa | 864 ± 1 | –
333.15 K, 35000 kPa | 866 ± 1 | –
333.15 K, 37500 kPa | 868 ± 1 | –
353.15 K, 500 kPa | 814 ± 1 | –
353.15 K, 1000 kPa | 814 ± 1 | –
353.15 K, 2500 kPa | 816 ± 1 | –
353.15 K, 5000 kPa | 819 ± 1 | –
353.15 K, 7500 kPa | 823 ± 1 | –
353.15 K, 10000 kPa | 825 ± 1 | –
353.15 K, 12500 kPa | 828 ± 1 | –
353.15 K, 15000 kPa | 831 ± 1 | –
353.15 K, 17500 kPa | 834 ± 1 | –
353.15 K, 20000 kPa | 836 ± 1 | –
353.15 K, 22500 kPa | 839 ± 1 | –
353.15 K, 25000 kPa | 841 ± 1 | –
353.15 K, 27500 kPa | 843 ± 1 | –
353.15 K, 30000 kPa | 846 ± 1 | –
353.15 K, 32500 kPa | 848 ± 1 | –
353.15 K, 35000 kPa | 850 ± 1 | –
353.15 K, 37500 kPa | 852 ± 1 | –
373.15 K, 500 kPa | 793 ± 1 | –
373.15 K, 1000 kPa | 794 ± 1 | –
373.15 K, 2500 kPa | 796 ± 1 | –
373.15 K, 5000 kPa | 800 ± 1 | –
373.15 K, 7500 kPa | 803 ± 1 | –
373.15 K, 10000 kPa | 806 ± 1 | –
373.15 K, 12500 kPa | 810 ± 1 | –
373.15 K, 15000 kPa | 813 ± 1 | –
373.15 K, 17500 kPa | 816 ± 1 | –
373.15 K, 20000 kPa | 818 ± 1 | –
373.15 K, 22500 kPa | 821 ± 1 | –
373.15 K, 25000 kPa | 824 ± 1 | –
373.15 K, 27500 kPa | 827 ± 1 | –
373.15 K, 30000 kPa | 829 ± 1 | –
373.15 K, 32500 kPa | 832 ± 1 | –
373.15 K, 35000 kPa | 834 ± 1 | –
373.15 K, 37500 kPa | 836 ± 1 | –
393.15 K, 500 kPa | 772 ± 1 | –
393.15 K, 1000 kPa | 773 ± 1 | –
393.15 K, 2500 kPa | 775 ± 1 | –
393.15 K, 5000 kPa | 779 ± 1 | –
393.15 K, 7500 kPa | 783 ± 1 | –
393.15 K, 10000 kPa | 787 ± 1 | –
393.15 K, 12500 kPa | 791 ± 1 | –
393.15 K, 15000 kPa | 794 ± 1 | –
393.15 K, 17500 kPa | 798 ± 1 | –
393.15 K, 20000 kPa | 801 ± 1 | –
393.15 K, 22500 kPa | 804 ± 1 | –
393.15 K, 25000 kPa | 807 ± 1 | –
393.15 K, 27500 kPa | 810 ± 1 | –
393.15 K, 30000 kPa | 812 ± 1 | –
393.15 K, 32500 kPa | 815 ± 1 | –
393.15 K, 35000 kPa | 818 ± 1 | –
393.15 K, 37500 kPa | 820 ± 1 | –
413.15 K, 500 kPa | 750 ± 1 | –
413.15 K, 1000 kPa | 751 ± 1 | –
413.15 K, 2500 kPa | 754 ± 1 | –
413.15 K, 5000 kPa | 759 ± 1 | –
413.15 K, 7500 kPa | 763 ± 1 | –
413.15 K, 10000 kPa | 768 ± 1 | –
413.15 K, 12500 kPa | 772 ± 1 | –
413.15 K, 15000 kPa | 776 ± 1 | –
413.15 K, 17500 kPa | 779 ± 1 | –
413.15 K, 20000 kPa | 783 ± 1 | –
413.15 K, 22500 kPa | 786 ± 1 | –
413.15 K, 25000 kPa | 790 ± 1 | –
413.15 K, 27500 kPa | 793 ± 1 | –
413.15 K, 30000 kPa | 796 ± 1 | –
413.15 K, 32500 kPa | 799 ± 1 | –
413.15 K, 35000 kPa | 802 ± 1 | –
413.15 K, 37500 kPa | 805 ± 1 | –
433.15 K, 500 kPa | 726 ± 1 | –
433.15 K, 1000 kPa | 727 ± 1 | –
433.15 K, 2500 kPa | 731 ± 1 | –
433.15 K, 5000 kPa | 737 ± 1 | –
433.15 K, 7500 kPa | 742 ± 1 | –
433.15 K, 10000 kPa | 747 ± 1 | –
433.15 K, 12500 kPa | 752 ± 1 | –
433.15 K, 15000 kPa | 757 ± 1 | –
433.15 K, 17500 kPa | 761 ± 1 | –
433.15 K, 20000 kPa | 765 ± 1 | –
433.15 K, 22500 kPa | 769 ± 1 | –
433.15 K, 25000 kPa | 772 ± 1 | –
433.15 K, 27500 kPa | 776 ± 1 | –
433.15 K, 30000 kPa | 779 ± 1 | –
433.15 K, 32500 kPa | 783 ± 1 | –
433.15 K, 35000 kPa | 786 ± 1 | –
433.15 K, 37500 kPa | 789 ± 1 | –
453.15 K, 500 kPa | 701 ± 1 | –
453.15 K, 1000 kPa | 703 ± 1 | –
453.15 K, 2500 kPa | 707 ± 1 | –
453.15 K, 5000 kPa | 714 ± 1 | –
453.15 K, 7500 kPa | 721 ± 1 | –
453.15 K, 10000 kPa | 727 ± 1 | –
453.15 K, 12500 kPa | 732 ± 1 | –
453.15 K, 15000 kPa | 737 ± 1 | –
453.15 K, 17500 kPa | 742 ± 1 | –
453.15 K, 20000 kPa | 747 ± 1 | –
453.15 K, 22500 kPa | 751 ± 1 | –
453.15 K, 25000 kPa | 755 ± 1 | –
453.15 K, 27500 kPa | 759 ± 1 | –
453.15 K, 30000 kPa | 763 ± 1 | –
453.15 K, 32500 kPa | 766 ± 1 | –
453.15 K, 35000 kPa | 770 ± 1 | –
453.15 K, 37500 kPa | 773 ± 1 | –
473.15 K, 500 kPa | 674 ± 1 | –
473.15 K, 1000 kPa | 676 ± 1 | –
473.15 K, 2500 kPa | 682 ± 1 | –
473.15 K, 5000 kPa | 691 ± 1 | –
473.15 K, 7500 kPa | 698 ± 1 | –
473.15 K, 10000 kPa | 705 ± 1 | –
473.15 K, 12500 kPa | 712 ± 1 | –
473.15 K, 15000 kPa | 717 ± 1 | –
473.15 K, 17500 kPa | 723 ± 1 | –
473.15 K, 20000 kPa | 728 ± 1 | –
473.15 K, 22500 kPa | 733 ± 1 | –
473.15 K, 25000 kPa | 738 ± 1 | –
473.15 K, 27500 kPa | 742 ± 1 | –
473.15 K, 30000 kPa | 746 ± 1 | –
473.15 K, 32500 kPa | 750 ± 1 | –
473.15 K, 35000 kPa | 754 ± 1 | –
473.15 K, 37500 kPa | 757 ± 1 | –
